Key:
Test in all cases: relative viability (nuclei count vs DMSO), 5 days (fraction); higher = more cells survive
LOU-NH91 = test system: LOU-NH91
How it was run: (§1)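 Lung cancer cell lines were seeded in 1536-well plates and dosed by pin tool the next day, with either a single drug or a fixed anchor-drug dose combined with five library-drug doses (not always all listed) spaced in √10 steps. Five days later, one step fixed the cells and stained their nuclei (final 0.05% Triton X-100, 1% formaldehyde, 1 ug/ml Hoechst), and nuclei were counted on 4× images. Relative viability is the nuclei count in treated wells divided by the count in vehicle wells, and each value is the median of duplicate plates.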

NCI-H1648 = test system: NCI-H1648
How it was run: as §1

NCI-H2009 = test system: NCI-H2009
How it was run: as §1

NCI-H2405 = test system: NCI-H2405
How it was run: as §1

NCI-H647 = test system: NCI-H647
How it was run: as §1

NCI-H1703 = test system: NCI-H1703
How it was run: as §1

Cc1cn(-c2cc(NC(=O)c3ccc(C)c(Nc4nccc(-c5cccnc5)n4)c3)cc(C(F)(F)F)c2)cn1 [Nilotinib] + CC(=O)Nc1cccc(-n2c(=O)n(C3CC3)c(=O)c3c(Nc4ccc(I)cc4F)n(C)c(=O)c(C)c32)c1 [Trametinib] (partner 0.02 µM)
relative viability (LOU-NH91; first compound 0.001 µM): 0.799 | relative viability (LOU-NH91; first compound 0.003162 µM): 0.818 | relative viability (LOU-NH91; first compound 0.01 µM): 0.846 | relative viability (LOU-NH91; first compound 0.03162 µM): 0.77 | relative viability (LOU-NH91; first compound 0.1 µM): 0.765 | relative viability (NCI-H1648; first compound 0.001 µM): 0.436 | relative viability (NCI-H1648; first compound 0.003162 µM): 0.434 | relative viability (NCI-H1648; first compound 0.01 µM): 0.44 | relative viability (NCI-H1648; first compound 0.03162 µM): 0.331 | relative viability (NCI-H1648; first compound 0.1 µM): 0.329 | relative viability (NCI-H2009; first compound 0.001 µM): 0.232 | relative viability (NCI-H2009; first compound 0.003162 µM): 0.203 | relative viability (NCI-H2009; first compound 0.01 µM): 0.278 | relative viability (NCI-H2009; first compound 0.03162 µM): 0.2 | relative viability (NCI-H2009; first compound 0.1 µM): 0.197 | relative viability (NCI-H2405; first compound 0.001 µM): 0.504 | relative viability (NCI-H2405; first compound 0.003162 µM): 0.406 | relative viability (NCI-H2405; first compound 0.01 µM): 0.457 | relative viability (NCI-H2405; first compound 0.03162 µM): 0.325 | relative viability (NCI-H2405; first compound 0.1 µM): 0.327 | relative viability (NCI-H647; first compound 0.001 µM): 0.363 | relative viability (NCI-H647; first compound 0.003162 µM): 0.614 | relative viability (NCI-H647; first compound 0.01 µM): 0.352 | relative viability (NCI-H647; first compound 0.03162 µM): 0.18 | relative viability (NCI-H647; first compound 0.1 µM): 0.254

CN1CCN(CCOc2cc(OC3CCOCC3)c3c(Nc4c(Cl)ccc5c4OCO5)ncnc3c2)CC1 [Saracatinib] + CC(=O)Nc1cccc(-n2c(=O)n(C3CC3)c(=O)c3c(Nc4ccc(I)cc4F)n(C)c(=O)c(C)c32)c1 [Trametinib] (partner 0.02 µM)
relative viability (LOU-NH91; first compound 0.02 µM): 0.731 | relative viability (LOU-NH91; first compound 0.2 µM): 0.694 | relative viability (LOU-NH91; first compound 0.6325 µM): 0.758 | relative viability (LOU-NH91; first compound 2 µM): 0.636 | relative viability (NCI-H1648; first compound 0.02 µM): 0.436 | relative viability (NCI-H1648; first compound 0.2 µM): 0.47 | relative viability (NCI-H1648; first compound 0.6325 µM): 0.564 | relative viability (NCI-H1648; first compound 2 µM): 0.357 | relative viability (NCI-H2009; first compound 0.02 µM): 0.274 | relative viability (NCI-H2009; first compound 0.2 µM): 0.207 | relative viability (NCI-H2009; first compound 0.6325 µM): 0.209 | relative viability (NCI-H2009; first compound 2 µM): 0.175 | relative viability (NCI-H2405; first compound 0.02 µM): 0.646 | relative viability (NCI-H2405; first compound 0.2 µM): 0.616 | relative viability (NCI-H2405; first compound 0.6325 µM): 0.444 | relative viability (NCI-H2405; first compound 2 µM): 0.406 | relative viability (NCI-H647; first compound 0.02 µM): 0.449 | relative viability (NCI-H647; first compound 0.2 µM): 0.381 | relative viability (NCI-H647; first compound 0.6325 µM): 0.39 | relative viability (NCI-H647; first compound 2 µM): 0.255

Cc1csc(=NC2CCCCC2)n1/N=C/c1ccc(O)c(O)c1O [MIM1] + NC(=O)Nc1cc(-c2cccc(F)c2)sc1C(=O)N[C@H]1CCCNC1 [AZD7762] (partner 0.2 µM)
relative viability (LOU-NH91; first compound 0.2 µM): 0.731 | relative viability (LOU-NH91; first compound 0.6325 µM): 0.779 | relative viability (LOU-NH91; first compound 2 µM): 0.677 | relative viability (LOU-NH91; first compound 6.325 µM): 0.637 | relative viability (LOU-NH91; first compound 20 µM): 0.279 | relative viability (NCI-H1648; first compound 0.2 µM): 0.615 | relative viability (NCI-H1648; first compound 0.6325 µM): 0.718 | relative viability (NCI-H1648; first compound 2 µM): 0.679 | relative viability (NCI-H1648; first compound 6.325 µM): 0.677 | relative viability (NCI-H1648; first compound 20 µM): 0.436 | relative viability (NCI-H1703; first compound 0.2 µM): 0.124 | relative viability (NCI-H1703; first compound 0.6325 µM): 0.134 | relative viability (NCI-H1703; first compound 2 µM): 0.107 | relative viability (NCI-H1703; first compound 6.325 µM): 0.112 | relative viability (NCI-H1703; first compound 20 µM): 0.122 | relative viability (NCI-H2405; first compound 0.2 µM): 0.835 | relative viability (NCI-H2405; first compound 0.6325 µM): 0.806 | relative viability (NCI-H2405; first compound 2 µM): 0.772 | relative viability (NCI-H2405; first compound 6.325 µM): 0.667 | relative viability (NCI-H2405; first compound 20 µM): 0.849 | relative viability (NCI-H647; first compound 0.2 µM): 0.502 | relative viability (NCI-H647; first compound 0.6325 µM): 0.379 | relative viability (NCI-H647; first compound 6.325 µM): 0.409 | relative viability (NCI-H647; first compound 20 µM): 0.073

CCNC(=O)c1noc(-c2cc(C(C)C)c(O)cc2O)c1-c1ccc(CN2CCOCC2)cc1 [Luminespib] + CC(=O)c1c(C)c2cnc(Nc3ccc(N4CCNCC4)cn3)nc2n(C2CCCC2)c1=O [Palbociclib] (partner 0.5 µM)
relative viability (LOU-NH91; first compound 0.002 µM): 0.557 | relative viability (LOU-NH91; first compound 0.006325 µM): 0.533 | relative viability (LOU-NH91; first compound 0.02 µM): 0.503 | relative viability (LOU-NH91; first compound 0.06325 µM): 0.375 | relative viability (LOU-NH91; first compound 0.2 µM): 0.354 | relative viability (NCI-H1648; first compound 0.002 µM): 0.216 | relative viability (NCI-H1648; first compound 0.006325 µM): 0.336 | relative viability (NCI-H1648; first compound 0.02 µM): 0.246 | relative viability (NCI-H1648; first compound 0.06325 µM): 0.361 | relative viability (NCI-H1648; first compound 0.2 µM): 0.387 | relative viability (NCI-H2009; first compound 0.002 µM): 0.287 | relative viability (NCI-H2009; first compound 0.006325 µM): 0.172 | relative viability (NCI-H2009; first compound 0.02 µM): 0.113 | relative viability (NCI-H2009; first compound 0.06325 µM): 0.0496 | relative viability (NCI-H2009; first compound 0.2 µM): 0.0514 | relative viability (NCI-H2405; first compound 0.002 µM): 0.557 | relative viability (NCI-H2405; first compound 0.02 µM): 0.417 | relative viability (NCI-H2405; first compound 0.06325 µM): 0.172 | relative viability (NCI-H2405; first compound 0.2 µM): 0.164 | relative viability (NCI-H647; first compound 0.002 µM): 0.442 | relative viability (NCI-H647; first compound 0.006325 µM): 0.396 | relative viability (NCI-H647; first compound 0.02 µM): 0.207 | relative viability (NCI-H647; first compound 0.06325 µM): 0.0721 | relative viability (NCI-H647; first compound 0.2 µM): 0.0558
